Experimental data taken from PMC8230474, “Synthesis of Novel Acyl Derivatives of 3-(4,5,6,7-Tetrabromo-1H-benzimidazol-1-yl)propan-1-ols—Intracellular TBBi-Based CK2 Inhibitors with Proapoptotic Properties” (International Journal of Molecular Sciences, 2021).
Where two headings read alike, the source gives them in different places.

Key:
MCF-7 cells [1] = assay: MTT viability assay, MCF-7; format: cell-based; conditions: Homo sapiens
Procedure: (§1) To test the anti-cancer effect of the TBBi derivatives, we treated the MCF-7 and MDA-MB-231 cells with the newly synthesized esters and previously reported compounds [34, 57] at the concentration range of 3.125 to 200 µM for 24 h, 48 h and 72 h. Additionally, the range of concentrations was extended by additional lower concentrations in MCF-7 for compound 4 with the minimum concentration of 0.195 µM. […] The EC50 values, describing the half maximal effective concentration of each tested compound, were calculated and are summarized in Table 2. […] We observed that the EC50 values increase in both cell lines with the elongation of fatty acids chain length in the tested compounds, thus strongly correlating with the decrease of their solubility in biological media as characterized by logS parameter (Table 2). The second reason for the decreased biological activity of the longer-chain aliphatic esters might be attributed to their greater resistance toward intracellular hydrolysis, which directly influences the slower release of the active form of the corresponding CK2 inhibitors. […] However, none of the tested compounds, except for compound 5, decreased the viability of both cell lines in a time-dependent manner (Figure 4).
(§2) MCF-7 and MDA-MB-231 were cultured in high-glucose Dulbecco’s modified Eagle medium (DMEM, Lonza, Basel, Switzerland) supplemented with 10% fetal bovine serum (FBS, EuroClone, Siziano, Italy)), 2 mM L-glutamine, and antibiotics (100 U/mL penicillin, 100 µg/mL streptomycin) (Sigma-Aldrich Chemical Company (St. Louis, MO, USA). Cells were grown in 75-cm^2 cell culture flasks (Sarstedt, Nümbrecht, Germany) in a humidified atmosphere of CO2/air (5%/95%) at 37 °C. All the experiments were performed in exponentially growing cultures. Stock solutions of the test compounds were prepared in DMSO and stored in −80 °C for a maximum of one month. For the cytotoxicity studies, stock solutions of the tested compounds were diluted 200-fold with the proper culture medium to obtain the final concentrations.
(§3) After incubation with the tested compounds, an MTT test was performed as described previously. Optical densities were measured at 570 nm using BioTek microplate reader (Winooski, VT, USA). All measurements were carried out in a minimum of three biological replicates.

MDA-MB-231 cells = assay: MTT viability assay, MDA-MB-231; format: cell-based; conditions: Homo sapiens
Procedure: as §1, §2, §3

PIM1 = PIM1 (Homo sapiens, UniProt P11309); assay: Radiometric (P81 filter isotopic) kinase assay, PIM1; format: biochemical; conditions: for remaining activity at 5 µM: 5 µM compound; for remaining activity at 5 µM / remaining activity at 10 µM: read-out: Residual Activity of the Enzyme PIM1; for remaining activity at 10 µM: 10 µM compound; for Ki: calculated from IC50 by Cheng and Prusoff equation
[2] = biological target: human CK2 catalytic subunit (CK2α) (Homo sapiens, UniProt P68400); assay: Radiometric (P81 filter isotopic) kinase assay, CK2 catalytic subunit; format: biochemical; conditions: for remaining activity at 5 µM: 5 µM compound; for remaining activity at 5 µM / remaining activity at 10 µM: read-out: Residual Activity of the Enzyme CK2α; for remaining activity at 10 µM: 10 µM compound
MCF-7 cells [3] = assay: Cell cycle progression by flow cytometry, MCF-7; format: cell-based, human; conditions: MCF-7, 72 h, compound at its EC50
[4] = biological target: CK2 holoenzyme (CK2 α2β2) (Homo sapiens, UniProt P68400); assay: Radiometric (P81 filter isotopic) kinase assay, CK2 holoenzyme; format: biochemical; conditions: for remaining activity at 5 µM: 5 µM compound; for remaining activity at 5 µM / remaining activity at 10 µM: read-out: Residual Activity of the Enzyme CK2 α2β2; for remaining activity at 10 µM: 10 µM compound; for Ki: calculated from IC50 by Cheng and Prusoff equation
[5] = MCF7, 24 h, 48 h and 72 h, read-out: EC50 MCF-7
[6] = MCF7, 24 h, read-out: EC50 ± SD MCF-7
[7] = MCF7, 48 h, read-out: EC50 ± SD MCF-7
[8] = MCF7, 72 h, read-out: EC50 ± SD MCF-7
[9] = 24 h, 48 h and 72 h, read-out: EC50 MDA-MB-231
[10] = 24 h, read-out: EC50 ± SD MDA-MB-231
[11] = 48 h, read-out: EC50 ± SD MDA-MB-231
[12] = 72 h, read-out: EC50 ± SD MDA-MB-231

PIM1, sequence (P11309 whole entry, species assumed): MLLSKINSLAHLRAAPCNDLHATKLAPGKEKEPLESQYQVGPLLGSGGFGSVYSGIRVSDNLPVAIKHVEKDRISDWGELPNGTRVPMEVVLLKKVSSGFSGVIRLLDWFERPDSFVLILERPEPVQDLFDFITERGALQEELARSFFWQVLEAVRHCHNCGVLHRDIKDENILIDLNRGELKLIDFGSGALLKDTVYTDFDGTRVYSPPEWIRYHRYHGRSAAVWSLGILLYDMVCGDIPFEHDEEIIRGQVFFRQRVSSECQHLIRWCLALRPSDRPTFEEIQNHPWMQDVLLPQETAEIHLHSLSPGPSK
human CK2 catalytic subunit (CK2α), sequence (P68400 whole entry): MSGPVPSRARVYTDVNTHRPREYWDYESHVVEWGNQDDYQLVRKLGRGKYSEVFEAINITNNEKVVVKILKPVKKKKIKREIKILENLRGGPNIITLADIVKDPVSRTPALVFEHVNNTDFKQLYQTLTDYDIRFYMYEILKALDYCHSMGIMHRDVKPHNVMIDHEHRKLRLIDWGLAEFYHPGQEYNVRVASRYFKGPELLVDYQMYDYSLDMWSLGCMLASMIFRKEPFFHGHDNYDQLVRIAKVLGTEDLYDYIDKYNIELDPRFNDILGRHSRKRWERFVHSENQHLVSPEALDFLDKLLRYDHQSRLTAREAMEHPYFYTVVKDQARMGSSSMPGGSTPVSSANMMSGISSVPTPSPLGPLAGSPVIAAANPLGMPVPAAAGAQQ
CK2 holoenzyme (CK2 α2β2), sequence (P68400 whole entry): as above
CK2 holoenzyme (CK2 α2β2), sequence (P67870 whole entry partner): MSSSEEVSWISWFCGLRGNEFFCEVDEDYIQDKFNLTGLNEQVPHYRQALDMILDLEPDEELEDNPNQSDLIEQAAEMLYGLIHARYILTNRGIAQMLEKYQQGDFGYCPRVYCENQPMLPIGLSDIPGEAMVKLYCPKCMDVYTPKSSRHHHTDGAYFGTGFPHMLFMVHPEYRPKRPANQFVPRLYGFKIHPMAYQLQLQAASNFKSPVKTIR

| SMILES | EC50 (MCF-7 cells [1]; [6]) [µM] | EC50 (MCF-7 cells [1]; [7]) [µM] | EC50 (MCF-7 cells [1]; [8]) [µM] | EC50 (MDA-MB-231 cells; [10]) [µM] | EC50 (MDA-MB-231 cells; [11]) [µM] | EC50 (MDA-MB-231 cells; [12]) [µM] | melting point [°C] | remaining activity at 5 µM (PIM1) [%] | remaining activity at 10 µM (PIM1) [%] | Ki (PIM1) [µM] | remaining activity at 5 µM [2] [%] | remaining activity at 10 µM [2] [%] | cells in G1 (MCF-7 cells [3]) [%] | cells in G2M (MCF-7 cells [3]) [%] | cells in S (MCF-7 cells [3]) [%] | remaining activity at 5 µM [4] [%] | remaining activity at 10 µM [4] [%] | also measured |
| --- | --- | --- | --- | --- | --- | --- | --- | --- | --- | --- | --- | --- | --- | --- | --- | --- | --- | --- |
| CCCCCCCCCCCC(=O)OCCCn1c(C)nc2c(Br)c(Br)c(Br)c(Br)c21 [Compound 6d, (4,5,6,7-Tetrabromo-2-methyl-1H-benzimidazol-1-yl)propyl dodecanoate] | > 100 | > 100 | > 100 | > 100 | > 100 | > 100 | 69 to 70 | – | – | – | – | – | – | – | – | – | – | EC50 (MCF-7 cells [1]; [5]): > 100 µM; EC50 (MDA-MB-231 cells; [9]): > 100 µM |
| Cc1nc2c(Br)c(Br)c(Br)c(Br)c2[nH]1 [Compound 4, 4,5,6,7-tetrabromo-2-methyl-1H-benzimidazole, reference compound] | 4.12 ± 0.03 | 4.2 ± 0.29 | 2.66 ± 0.19 | 12.8 ± 6.6 | 5.35 ± 0.82 | 4.73 ± 0.48 | – | 8 ± 0.9 | 4.5 ± 0.2 | 0.21 ± 0.02 | 18.8 ± 1.1 | 7.7 ± 3.3 | 53.6 | 16.7 | 29.7 | 6 ± 0.9 | 2.9 ± 0.2 | Ki [4]: 0.11 ± 0.04 µM |
| CCCCCCCCCCCC(=O)OCCCn1cnc2c(Br)c(Br)c(Br)c(Br)c21 [Compound 3d, 3-(4,5,6,7-Tetrabromo-1H-benzimidazol-1-yl)propyl dodecanoate] | > 100 | > 100 | > 100 | > 100 | > 100 | > 100 | 59 to 60 | – | – | – | – | – | – | – | – | – | – | EC50 (MCF-7 cells [1]; [5]): > 100 µM; EC50 (MDA-MB-231 cells; [9]): > 100 µM |
| Cc1nc2c(Br)c(Br)c(Br)c(Br)c2n1CCCO [Compound 5] | 17.6 ± 6.35 | 16 ± 5.31 | 4.9 ± 2.71 | 57.8 ± 20.8 | 21 ± 9.85 | 9.99 ± 0.44 | 227 to 230 | 9.3 ± 2.6 | 3.4 ± 0.3 | 0.15 ± 0.08 | 26.1 ± 3.5 | 16.3 ± 1 | 60.2 | 13.5 | 26.3 | 14.2 ± 2 | 9.1 ± 0.6 | Ki ([2]; calculated from IC50 by Cheng and Prusoff equation): 0.2 ± 0.08 µM; Ki [4]: 0.05 ± 0.01 µM |
| CCCC(=O)OCCCn1cnc2c(Br)c(Br)c(Br)c(Br)c21 [Compound 3a, (4,5,6,7-Tetrabromo-1H-benzimidazol-1-yl)propyl butanoate] | 29.3 ± 1.24 | 23.1 ± 0.77 | 21.5 ± 1.86 | 40.8 ± 1.58 | 27.8 ± 1.31 | 24.5 ± 0.48 | 96 to 97 | 65 ± 2.8 | 24.4 ± 0.9 | 2.23 ± 0.07 | 71 ± 9.5 | 59.1 ± 3.7 | 57.8 | 13.8 | 28.4 | 58 ± 4 | 34.8 ± 3.4 | – |
| OCCCn1cnc2c(Br)c(Br)c(Br)c(Br)c21 [Compound 2] | 24.1 ± 1.39 | 20.1 ± 1.36 | 19.6 ± 1.68 | 54.6 ± 4.32 | 27.2 ± 0.49 | 20.6 ± 0.86 | – | 17.2 ± 2.3 | 10.1 ± 1 | 0.42 ± 0.02 | – | – | 51.0 | 14.4 | 34.6 | – | – | – |
| CCCCCC(=O)OCCCn1cnc2c(Br)c(Br)c(Br)c(Br)c21 [Compound 3b, 3-(4,5,6,7-Tetrabromo-1H-benzimidazol-1-yl)propyl hexanoate] | 39.6 ± 1.06 | 28.4 ± 1.71 | 24.8 ± 1.33 | 95.6 ± 20.4 | 32.2 ± 3.26 | 27.3 ± 1.26 | 65 to 67 | 85 ± 0.1 | 74.2 ± 11.2 | – | 89.3 ± 8 | 83 ± 13 | 60.5 | 12.2 | 27.3 | 85.5 ± 8.3 | 83.1 ± 7.5 | – |
| O=C(O)c1ccc2c(c1)nc(Nc1cccc(Cl)c1)c1ccncc12 [CX-4945, silmitasertib, reference compound] | – | – | – | – | – | – | – | 2.3 ± 0.1 | – | – | 0 | 0 | 33.6 | 22.0 | 44.4 | 0 | 0 | – |
